US10774071B2, “PD-1/PD-L1 inhibitors” (Gilead Sciences, Inc., priority 2018, dated 2020)
Where two headings read alike, the source gives them in different places.

What was measured:
PD-1/PD-L1 = PD-1/PD-L1 (Homo sapiens (Human), UniProt Q9NZQ7); experiment: PD-1/PD-L1 biochemical protein-protein interaction assay (ALPHA); type: binding; conditions: read-out: IC50 PD-L1-PD1
PD-L1 = PD-L1 (Homo sapiens (Human), UniProt Q9NZQ7); experiment: PD-L1/PD-L1 dimerization biochemical protein-protein interaction assay (ALPHA); type: binding; conditions: read-out: AC50 PDL1 Dimer 1 nM
Sequence of PD-L1 (Q9NZQ7 19-238): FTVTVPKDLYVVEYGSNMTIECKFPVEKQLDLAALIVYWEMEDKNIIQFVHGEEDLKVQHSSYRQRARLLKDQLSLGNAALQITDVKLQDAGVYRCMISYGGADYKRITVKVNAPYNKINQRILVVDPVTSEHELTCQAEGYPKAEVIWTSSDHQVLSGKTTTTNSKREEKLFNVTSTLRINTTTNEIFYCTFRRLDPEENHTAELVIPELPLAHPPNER
Sequence of PD-L1 (Q9NZQ7 19-238): as above

[1] = 0.3 nM His tagged PD-L1, 2.5 nM biotinylated Fc-PD-1, readings of 0.064 nM are equal to or less than 0.064 nM
[2] = 0.5 nM His tagged PD-L1 and 0.5 nM FLAG tagged PD-L1, Table 4A
[3] = 0.3 nM His tagged PD-L1, 2.5 nM biotinylated Fc-PD-1, Table 3B
[4] = 0.5 nM His tagged PD-L1 and 0.5 nM FLAG tagged PD-L1, Table 4B

Sequence of PD-1/PD-L1 (Q9NZQ7 19-238): as above

| Structure (SMILES) | IC50 (PD-1/PD-L1; [1]) | AC50 (PD-L1; [2]) | IC50 (PD-1/PD-L1; [3]) | AC50 (PD-L1; [4]) |
| --- | --- | --- | --- | --- |
| COc1nc(-c2cccc(-c3cccc4c3CC[C@@H]4Nc3nc(OC)c(CN(C)[C@@H](C)C(=O)O)nc3C(F)(F)F)c2Cl)ccc1CNC[C@@H]1CCC(=O)N1 [A-96] | ≤ 0.064 nM | 3.97 nM | – | – |
| COc1nc(-c2cccc(-c3cccc4c3CC[C@@H]4Nc3nc(OC)c(CN[C@@H](C)C(=O)N(C)C)nc3C(F)(F)F)c2Cl)ccc1CNC[C@@H]1CCC(=O)N1 [A-97] | ≤ 0.064 nM | 6.28 nM | – | – |
| COc1nc(-c2cccc(-c3cccc4c3CC[C@@H]4Nc3nc(OC)c(CN[C@@H](C)C(N)=O)cc3C(F)(F)F)c2Cl)ccc1CNC[C@@H]1CCC(=O)N1 [A-98] | ≤ 0.064 nM | 40.3 nM | – | – |
| COC(=O)[C@H](C)NCc1nc(C(F)(F)F)c(N[C@H]2CCc3c(-c4cccc(-c5ccc(CNC[C@@H]6CCC(=O)N6)c(OC)n5)c4Cl)cccc32)nc1OC [A-99] | 0.397 nM | 110 nM | – | – |
| COC[C@H](NCc1nc(C(F)(F)F)c(N[C@H]2CCc3c(-c4cccc(-c5ccc(CNC[C@@H]6CCC(=O)N6)c(OC)n5)c4Cl)cccc32)nc1OC)C(=O)O [A-100] | ≤ 0.064 nM | 7.11 nM | – | – |
| COc1nc(-c2cccc(-c3cccc4c3CC[C@@H]4Nc3nc(OC)c(CN[C@H](C(=O)O)C4CC4)nc3C(F)(F)F)c2Cl)ccc1CNC[C@@H]1CCC(=O)N1 [A-101] | ≤ 0.064 nM | 3.9 nM | – | – |
| COc1nc(-c2cccc(-c3cccc4c3CC[C@@H]4Nc3nc(OC)c(CN[C@@H](C)C(N)=O)nc3C(F)(F)F)c2Cl)ccc1CNC[C@@H]1CCC(=O)N1 [A-102] | ≤ 0.064 nM | 43.1 nM | – | – |
| COc1nc(-c2cccc(-c3cccc4c3CC[C@@H]4Nc3nc(OC)c(CNCC(N)=O)nc3C(F)(F)F)c2Cl)ccc1CNC[C@@H]1CCC(=O)N1 [A-103] | ≤ 0.064 nM | 40.2 nM | – | – |
| CC[C@H](NCc1nc(C(F)(F)F)c(N[C@H]2CCc3c(-c4cccc(-c5ccc(CNC[C@@H]6CCC(=O)N6)c(OC)n5)c4Cl)cccc32)nc1OC)C(=O)O [A-104] | ≤ 0.064 nM | 16.6 nM | – | – |
| COc1nc(-c2cccc(-c3cccc4c3CC[C@@H]4Nc3nc(OC)c(CN[C@H](C(=O)O)C(C)C)nc3C(F)(F)F)c2Cl)ccc1CNC[C@@H]1CCC(=O)N1 [A-105] | ≤ 0.064 nM | 40.6 nM | – | – |
| COc1nc(-c2cccc(-c3cccc4c3CC[C@@H]4Nc3nc(OC)c(CN[C@@H](C)C(=O)O)nc3C(F)(F)F)c2Cl)ccc1CNC[C@@H]1CCC(=O)N1 [A-106] | ≤ 0.064 nM | 5.04 nM | – | – |
| COc1nc(-c2cccc(-c3cccc4c3CC[C@@H]4Nc3nc(OC)c(CNCC(=O)O)nc3C(F)(F)F)c2Cl)ccc1CNC[C@@H]1CCC(=O)N1 [A-107] | ≤ 0.064 nM | 8.64 nM | – | – |
| COc1cc(-c2cccc(-c3cccc4c3CC[C@@H]4Nc3nc(OC)c(CNCC(=O)O)nc3C(F)(F)F)c2Cl)ccc1CNC1CC(O)(CF)C1 (some centres unmarked) [A-108] | ≤ 0.064 nM | 6.64 nM | – | – |
| COc1nc(-c2cccc(-c3cccc4c3CC[C@@H]4Nc3nc(OC)c(CNCC(=O)O)nc3C(F)(F)F)c2Cl)ccc1CN[C@@H]1CCCC[C@@H]1O [A-109] | ≤ 0.064 nM | 8.98 nM | – | – |
| COc1nc(-c2cccc(-c3cccc4c3CC[C@@H]4Oc3nc(OC)c(CNC(C)(C)C(=O)O)cc3C(F)(F)F)c2Cl)ccc1CN[C@H]1C[C@](C)(O)C1 [B-1] | – | – | 0.064 nM | 1.11 nM |
| COc1nc(-c2cccc(-c3cccc4c3CC[C@@H]4Oc3nc(OC)c(CN4CC[C@@H](C(=O)O)C4)cc3C(F)(F)F)c2Cl)ccc1CN[C@H]1C[C@](C)(O)C1 [B-2] | – | – | 0.064 nM | 17.5 nM |
| COc1nc(-c2cccc(-c3cccc4c3CC[C@@H]4Oc3nc(OC)c(CN4CC[C@@H]5C[C@@]54C(=O)O)cc3C(F)(F)F)c2Cl)ccc1CN[C@H]1C[C@](C)(O)C1 [B-3] | – | – | 0.066 nM | 120 nM |
| COc1nc(-c2cccc(-c3cccc4c3CC[C@@H]4Oc3nc(OC)c(CN4CC5(C(=O)O)CCC4CC5)cc3C(F)(F)F)c2Cl)ccc1CN[C@H]1C[C@](C)(O)C1 [B-4] | – | – | 0.064 nM | 20.9 nM |
| COc1nc(-c2cccc(-c3cccc4c3CC[C@@H]4Oc3nc(OC)c(CN4CCC[C@H]4C(=O)O)cc3C(F)(F)F)c2Cl)ccc1CNC[C@@H]1CCC(=O)N1 [B-5] | – | – | 0.064 nM | 2.67 nM |
| COc1nc(-c2cccc(-c3cccc4c3CC[C@@H]4Oc3nc(OC)c(CN4CCC[C@@H]4C(=O)O)cc3C(F)(F)F)c2Cl)ccc1CNC[C@@H]1CCC(=O)N1 [B-6] | – | – | 0.064 nM | 7.96 nM |

| Structure (SMILES) | IC50 (PD-1/PD-L1; [1]) | AC50 (PD-L1; [2]) | IC50 (PD-1/PD-L1; [3]) | AC50 (PD-L1; [4]) |
| --- | --- | --- | --- | --- |
| COc1nc(-c2cccc(-c3cccc4c3CC[C@@H]4Oc3nc(OC)c(CN4CC[C@H](C)[C@H]4C(=O)O)cc3C(F)(F)F)c2Cl)ccc1CNC[C@@H]1CCC(=O)N1 [B-7] | – | – | 0.064 nM | 4.04 nM |
| COc1nc(-c2cccc(-c3cccc4c3CC[C@@H]4Oc3nc(OC)c(CN4CCC[C@]4(C)C(=O)O)cc3C(F)(F)F)c2Cl)ccc1CNC[C@@H]1CCC(=O)N1 [B-8] | – | – | 0.064 nM | 13.2 nM |
| COc1nc(-c2cccc(-c3cccc4c3CC[C@@H]4Oc3nc(OC)c(CN4CC(C(=O)O)C4C)cc3Cl)c2Cl)ccc1CNC[C@@H]1CCC(=O)N1 (some centres unmarked) [B-9] | – | – | 0.064 nM | 19.2 nM |
| COc1nc(-c2cccc(-c3cccc4c3CC[C@@H]4Oc3nc(OC)c(CN4CC(C)(C(=O)O)C4)cc3Cl)c2Cl)ccc1CNC[C@@H]1CCC(=O)N1 [B-10] | – | – | 0.064 nM | 5.4 nM |
| COc1nc(-c2cccc(-c3cccc4c3CC[C@@H]4Oc3nc(OC)c(CN4CC5CCC(C(=O)O)(C5)C4)cc3Cl)c2Cl)ccc1CNC[C@@H]1CCC(=O)N1 (some centres unmarked) [B-11] | – | – | 0.066 nM | 71.4 nM |
| COc1nc(-c2cccc(-c3cccc4c3CC[C@@H]4Oc3nc(OC)c(CNC(C)(C)C(=O)O)cc3C(F)(F)F)c2Cl)ccc1CNC[C@@H]1CCC(=O)N1 [B-12] | – | – | 0.064 nM | 1.12 nM |
| COc1nc(-c2cccc(-c3cccc4c3CC[C@@H]4Oc3nc(OC)c(CN4CCC[C@@]4(C)C(=O)O)cc3C(F)(F)F)c2Cl)ccc1CNC[C@@H]1CCC(=O)N1 [B-13] | – | – | 0.064 nM | 3.92 nM |
| COc1nc(O[C@H]2CCc3c(-c4cccc(-c5ccc(CNC[C@@H]6CCC(=O)N6)c(OCC#N)n5)c4Cl)cccc32)c(Cl)cc1CNC1(C(=O)O)CC1 [B-14] | – | – | 0.064 nM | 15.7 nM |
| COc1nc(O[C@H]2CCc3c(-c4cccc(-c5ccc(CNC[C@@H]6CCC(=O)N6)c(OCC#N)n5)c4Cl)cccc32)c(Cl)cc1CN1CC[C@@H](C(=O)O)C1 [B-19] | – | – | 0.064 nM | 9.33 nM |
| COc1nc(-c2cccc(-c3cccc4c3CC[C@@H]4Oc3nc(OC)c(CNC45CC(C(=O)O)(C4)C5)cc3Cl)c2Cl)ccc1CNC[C@@H]1CCC(=O)N1 [B-20] | – | – | 0.064 nM | 33.7 nM |
| CNc1nc(-c2cccc(-c3cccc4c3CC[C@@H]4Oc3nc(OC)c(CN4CC[C@@H](C(=O)O)C4)cc3Cl)c2Cl)cnc1CN1CC(C)(O)C1 [B-21] | – | – | 0.064 nM | 31.2 nM |
| COc1nc(-c2cccc(-c3cccc4c3CC[C@@H]4Oc3nc(OCC#N)c(CNC4(C(=O)O)CC4)cc3C(F)(F)F)c2Cl)ccc1CNC[C@@H]1CCC(=O)N1 [B-22] | – | – | 0.074 nM | 13.4 nM |
| COc1nc(-c2cccc(-c3cccc4c3CC[C@@H]4Oc3nc(OC)c(CN4CC5(C(=O)O)CCC4CC5)cc3Cl)c2Cl)ccc1CNC1CC2CCC1N2C(C)=O (some centres unmarked) [B-23] | – | – | 0.064 nM | 62.8 nM |
| COc1nc(-c2cccc(-c3cccc4c3CC[C@@H]4Oc3nc(OC)c(CN4CC5(CC(C(=O)O)C5)C4)cc3Cl)c2Cl)ccc1CNC[C@@H]1CCC(=O)N1 [B-24] | – | – | 0.064 nM | 19.4 nM |
| COc1nc(-c2cccc(-c3cccc4c3CC[C@@H]4Oc3nc(OC)c(CN4CCC(C)(C)C(C(=O)O)C4)cc3Cl)c2Cl)ccc1CNC[C@@H]1CCC(=O)N1 (some centres unmarked) [B-25] | – | – | 0.064 nM | 17.8 nM |
| COc1nc(-c2cccc(-c3cccc4c3CC[C@@H]4Oc3nc(OC)c(CN4CCC5(C(=O)O)CC45)cc3Cl)c2Cl)ccc1CNC[C@@H]1CCC(=O)N1 (some centres unmarked) [B-26] | – | – | 0.064 nM | 18.4 nM |
| COc1nc(-c2cccc(-c3cccc4c3CC[C@@H]4Oc3nc(OC)c(CNCCC(=O)O)cc3Cl)c2Cl)ccc1CNC[C@@H]1CCC(=O)N1 [B-27] | – | – | 0.064 nM | 11.2 nM |
| CNC(=O)C1CCN(Cc2cc(Cl)c(O[C@H]3CCc4c(-c5cccc(-c6cnc(CNC[C@@H]7CCC(=O)N7)c(OC)n6)c5Cl)cccc43)nc2OC)C1 (some centres unmarked) [B-28] | – | – | 0.088 nM | 26.9 nM |
| COc1nc(-c2cccc(-c3cccc4c3CC[C@@H]4Oc3nc(OCc4cc(F)cc(C#N)c4)c(CN4CC5(C(=O)O)CCC4CC5)cc3Cl)c2Cl)ccc1CNC[C@@H]1CCC(=O)N1 [B-30] | – | – | 0.158 nM | 58.3 nM |
| COc1nc(-c2cccc(-c3cccc4c3CC[C@@H]4Oc3nc(OCc4cc(Cl)cc(C#N)c4)c(CN4CC5(C(=O)O)CCC4CC5)cc3Cl)c2Cl)ccc1CNC[C@@H]1CCC(=O)N1 [B-31] | – | – | 0.085 nM | 32.3 nM |
